Laboratory results published in ChEMBL document CHEMBL1133999, “3-Deoxy-3-substituted-D-myo-inositol imidazolyl ether lipid phosphates and carbonate as inhibitors of the phosphatidylinositol 3-kinase pathway and cancer cell growth” (Bioorg Med Chem Lett, 2001).

Legend:
NIH3T3 = experiment: Inhibition of NIH3T3 cell proliferation; assay type: functional, cell-based; settings: Mus musculus
HT-29 = experiment: Inhibition of human colon carcinoma (HT-29) cell proliferation; assay type: functional, cell-based
[1] = target: Serine/threonine-protein kinase AKT (Homo sapiens, UniProt P31751+Q9Y243+P31749); experiment: Inhibition of Akt (proto-oncogenic serine/threonine) kinase; assay type: protein assay
[2] = target: PI3-kinase p110-alpha/p85-alpha (Homo sapiens, UniProt P42336); experiment: Inhibition of […]/p85 PI3-kinase (phosphatidylinositol 3-kinase); assay type: protein-complex assay
Chain of PI3-kinase p110-alpha/p85-alpha (P27986 whole entry): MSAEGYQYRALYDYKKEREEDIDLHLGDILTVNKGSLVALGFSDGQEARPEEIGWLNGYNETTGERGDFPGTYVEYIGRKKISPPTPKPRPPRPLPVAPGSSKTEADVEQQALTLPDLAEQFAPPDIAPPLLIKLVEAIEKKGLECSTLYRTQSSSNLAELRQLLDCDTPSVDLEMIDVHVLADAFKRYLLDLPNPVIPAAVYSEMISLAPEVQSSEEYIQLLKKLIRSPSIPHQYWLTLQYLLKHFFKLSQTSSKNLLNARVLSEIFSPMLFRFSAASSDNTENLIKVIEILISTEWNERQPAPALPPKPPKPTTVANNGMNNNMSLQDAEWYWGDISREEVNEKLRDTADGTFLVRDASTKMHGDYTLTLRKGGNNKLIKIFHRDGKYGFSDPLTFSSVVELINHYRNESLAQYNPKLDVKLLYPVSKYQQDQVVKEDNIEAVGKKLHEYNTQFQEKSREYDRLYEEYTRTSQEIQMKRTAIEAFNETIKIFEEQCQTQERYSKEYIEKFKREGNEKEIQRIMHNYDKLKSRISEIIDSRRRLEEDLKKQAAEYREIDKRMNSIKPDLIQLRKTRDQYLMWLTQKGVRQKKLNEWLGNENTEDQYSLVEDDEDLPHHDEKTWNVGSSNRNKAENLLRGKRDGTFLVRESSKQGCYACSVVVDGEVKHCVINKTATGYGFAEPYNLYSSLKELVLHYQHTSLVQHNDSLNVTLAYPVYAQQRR
Chain of PI3-kinase p110-alpha/p85-alpha (P42336 whole entry): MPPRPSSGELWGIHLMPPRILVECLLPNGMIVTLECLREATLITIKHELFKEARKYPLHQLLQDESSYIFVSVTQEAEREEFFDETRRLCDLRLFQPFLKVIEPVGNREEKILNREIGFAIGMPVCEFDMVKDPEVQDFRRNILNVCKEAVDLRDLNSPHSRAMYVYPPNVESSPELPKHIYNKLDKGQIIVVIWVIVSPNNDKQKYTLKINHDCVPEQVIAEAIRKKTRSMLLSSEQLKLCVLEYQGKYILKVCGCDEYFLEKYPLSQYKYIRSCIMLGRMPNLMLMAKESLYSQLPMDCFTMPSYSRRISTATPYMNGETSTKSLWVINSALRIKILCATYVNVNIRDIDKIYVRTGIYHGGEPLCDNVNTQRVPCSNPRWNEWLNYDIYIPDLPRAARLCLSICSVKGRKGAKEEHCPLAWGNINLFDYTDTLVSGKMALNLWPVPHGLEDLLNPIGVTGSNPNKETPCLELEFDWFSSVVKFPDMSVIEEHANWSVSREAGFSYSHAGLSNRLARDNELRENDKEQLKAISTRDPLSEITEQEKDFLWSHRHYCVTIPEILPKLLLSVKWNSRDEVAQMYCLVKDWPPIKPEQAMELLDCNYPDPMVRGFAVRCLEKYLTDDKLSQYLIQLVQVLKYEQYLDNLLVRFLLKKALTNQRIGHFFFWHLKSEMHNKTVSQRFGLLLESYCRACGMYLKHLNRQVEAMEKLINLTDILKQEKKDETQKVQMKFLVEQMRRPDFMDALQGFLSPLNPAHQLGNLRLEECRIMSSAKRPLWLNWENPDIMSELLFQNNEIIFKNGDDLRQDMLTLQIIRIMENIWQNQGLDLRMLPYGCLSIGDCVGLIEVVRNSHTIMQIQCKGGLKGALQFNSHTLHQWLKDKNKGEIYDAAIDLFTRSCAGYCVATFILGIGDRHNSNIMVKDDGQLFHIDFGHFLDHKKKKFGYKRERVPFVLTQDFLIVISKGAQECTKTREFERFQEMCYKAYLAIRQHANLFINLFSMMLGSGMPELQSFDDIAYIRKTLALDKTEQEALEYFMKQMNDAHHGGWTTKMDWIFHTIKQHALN

MCF7 = experiment: Inhibition of MCF-7 (breast) cancer cell proliferation; assay type: functional, cell-based; settings: Homo sapiens
[3] = Partition coefficient (logP); assay type: physicochemical; settings: octanol/water

| SMILES | IC50 (NIH3T3) | IC50 (HT-29) | IC50 [1] | IC50 [2] | IC50 (MCF7) | logP [3] |
| --- | --- | --- | --- | --- | --- | --- |
| CCCCCCCCCCCCCCCCCCOC[C@H](COP(=O)(O)OC1[C@@H](O)[C@@H](O)[C@H](O)[C@H](CO)[C@H]1O)OC (single isomer, unassigned) | 2 µM | 4.5 µM | 7.8 µM | 31 µM | 5 µM | – |
| CCCCCCCCCCCCCCCCCCOC[C@H](COC(=O)OC1[C@@H](O)[C@@H](O)[C@H](O)[C@H](CO)[C@H]1O)OC (single isomer, unassigned) | 2 µM | 10 µM | 5 µM | 83 µM | 1.25 µM | – |
| CCCCCCCCCCCCCCCCCCOC[C@H](COP(=O)(O)OC1[C@H](O)C[C@@H](O)[C@H](O)[C@@H]1O)OC (single isomer, unassigned) | 4.5 µM | – | – | 14.8 µM | – | 4.44 |
| CCCCCCCCCCCCCCCCCCOC[C@H](COP(=O)(O)OC1[C@H](O)C[C@@H](O)[C@H](O)[C@@H]1O)n1ccnc1 (single isomer, unassigned) | 6.5 µM | 15 µM | 37.5 µM | 14.5 µM | 6 µM | – |
| CCCCCCCCCCCCCCCCCCOC[C@H](COP(=O)(O)OC1[C@@H](O)[C@@H](O)[C@H](O)[C@H](CO)[C@H]1O)n1ccnc1 (single isomer, unassigned) | 8.2 µM | 6.5 µM | 20.5 µM | 7.9 µM | 2 µM | 3.22 |
| CCCCCCCCCCCCCCCCCCOC[C@H](COC(=O)OC1[C@@H](O)[C@@H](O)[C@H](O)[C@H](CO)[C@@H]1O)n1ccnc1 (single isomer, unassigned) | 11.5 µM | 15 µM | 15 µM | 49.5 µM | 20 µM | – |
